This is an account of results in patent publication US4778797A, “Organo-silicon compounds, process for the manufacture of same, and anti-tumor agent comprising the compound” (Sanwa Kagaku Kenkyusho Co., Ltd., priority 1984, dated 1988).

In data set [1] the test system is L-1210 leukemia. The data set is described as follows: Anti-tumor action to L-1210 leukemia. Particulars: Mus musculus, L1210, oral; for ILS at 250 mg/kg/day: 250 mg/kg/day × 3 (1st, 5th, 9th day); for ILS at 500 mg/kg/day: 500 mg/kg/day × 3 (1st, 5th, 9th day). The format is in vivo, BDF1 female mice. Here is the method:
L-1210 leukemia cell (1×10^5 cells) was transplanted in a abdominal cavity of BDF1 female mice (20-21 g, age of about 5 weeks), and each of testing compounds was orally dosed in 250 mg/kg or 500 mg/kg at 1st, 5th and 9th day after the transplantation to check days of life of the mice. [formula]

Data set [2] has as its system Lewis lung carcinoma. The data set is described as follows: Anti-tumor action to Lewis lung carcinoma (primary tumor weight and metastasis). Particulars: Mus musculus, po, 504 h. The format is in vivo, BDF1 mice. An excerpt: Lewis lung carcinoma (1×10^5 cells) was transplanted under skin of right ear of BDF1 mice (age of about 5 weeks), and each of testing compounds was orally dosed 10 times from 1st to 10th day after the transplantation. At 21st day after the transplantation, the mice were killed to measure a weight of the primarly tumor and to extract a lung. The lung was fixed in a conventional manner to count a number of metastasis on cancerous cells with use of a stereomicroscope having a low magnification. An anti-tumor action of each compound was expressed with an inhibition in weight of the primarly tumor and an inhibition of the metastasis.

Data set [3] concerns KB cells. The data set is described as follows: Suppression of KB cell proliferation in vitro. The class given is cell-based. As to conditions: Homo sapiens, 72 h, 3 days exposure, Trypan Blue dye-exclusion, read-out: KB IC50 (50% inhibition density to tumor cell proliferation). Here is the method: In a cultivation device (5% CO2, 37° C.), KB cells (1×10^4 cells) were cultivated for 24 hours in a culture tube with 1 ml of Eagle culture medium added 10% ox serum, the used culture medium was thrown away to change with a fresh culture medium (0.9 ml), and then 0.1 ml of a similar culture fluid containing each testing compound prepared by the process as described in the Examples was added to cultivate the same for further 3 days. Thereafter, living cells were dyed with Tripan Blue and measured same through a dye-exclusion method.
A control was treated in a manner similar to the above, except that a culture fluid containing no compound of the invention was added.
50% inhibition density (IC50) to the tumor cell proliferation was decided through the tests between the testing group and the control group to obtain results as shown in following Table 1.

Data set [4] relates to MM-46 adenocarcinoma. Briefly: Anti-tumor action to MM-46 adenocarcinoma. The class given is in vivo, C3H/He female mice. Particulars: oral, 250 mg/kg/day × 3 (1st, 5th, 9th day); days to death, testing vs control group. An excerpt: MM-46 adenocarcinoma (1×10^6 cells) was transplanted under skin of C3H/He female mice (age of about 5 weeks), and each of testing compounds was orally dosed at 1st, 5th and 9th day after the transplantation to check days of life on the mice.
T: days to death on testing group, and
C: days to death on control group.

Data set [5] deals with B-16 melanoma. Briefly: Anti-tumor action to B-16 melanoma. Particulars: oral, tumor weight at 21st day. The class given is in vivo, BDF1 female mice. An excerpt:
B-16 melanoma (1×10^5 cells) was transplanted under skin of BDF1 female mice (age of about 5 weeks), and each of testing compounds was orally dosed at 1st, 5th and 9th day after the transplantation. At 21st day after the transplantation, the mice were killed to measure a weight of the cancerous tumor and to finally determine an inhibition ratio.

Data set [6] concerns Colon-38 carcinoma. Briefly: Anti-tumor action to Colon-38 carcinoma. The class given is in vivo, BDF1 mice. Particulars: oral, tumor weight at 28th day. The procedure:
0.02 ml of 10(W/V)% cell suspension prepared from a solid cancer cell (Colon-38 carcinoma) were transplanted under skin of BDF1 mice (20-21 g, age of about 5 weeks), and each of testing compounds was orally dosed to the mice at 1st, 5th and 9th day after the transplantation. A major and minor axes of the cancerous tumor were measured at 11th, 14th, 21st, 25th and 28th day after the transplantation to calcurate volume of the tumor in accordance with the following.
At 28th day from the transplantation, the mice were killed and each of the cancerous tumors was extracted to measure its weight and to determine an inhibitation ratio in comparison with a non-treated control group.

Data set [7] is described as follows: Acute toxicity. The format is in vivo, CrJ/CDI female mice. As to conditions: mouse, in vivo; oral gavage, suspended in 0.1% P-1570, female mice, 21 days observation. Here is the method:
(§1) Each of testing compounds suspended in 0.1% P-1570 was orally and forcedly dosed through a gastric probe to CrJ/CDI female mice (21 to 22 g, age of about 5 weeks). An identification number was given to each mouse, and a weighing and observation on general behavior were carried out just before the dosage and each day after the same. Each of died mice was subjected without delay to an autopsy to check the same, more particularly in detail on enterona. All of living mice were killed at 21st day from the dosage to carry out an autopsy for checking the same, more particularly on entrails.
(§2) An LD50 was calculated in accordance with the Leed and Munch's method.
(§3) A similar test was carried out on each controls of 1-[2-[(2-trimethylsilylethyl)thio]ethylcarbamoyl]-5-fluorouracil and 1-hexylcarbamoyl-5-fluorouracil (HCFU) which is one of exemplary anti-tumor agents.

The subject of data set [8] is CrJ/CDI female mice. Briefly: Acute toxicity. The format is in vivo. As to conditions: oral gavage. The procedure:
as §1, §2, §3

In brackets after ≈: the same amount, converted by molar mass. Where two headings read alike, the source gives them in different places.

As to `C[Si](C)(CCSCCNC(=O)n1cc(F)c(=O)[nH]c1=O)c1ccccc1` [Example 3, N-[2-[[2-(Dimethylphenylsilyl)ethyl]thio]ethyl]-5-fluoro-3,4-dihydro-2,4-dioxo-1(2H)-pyrimidinecarboxamide], the ILS at 250 mg/kg/day in data set [1] (read-out: L-1210 ILS) is 38%; in data set [1] (read-out: L-1210 Judgement) it was 25 to 50%. In addition, the ILS at 500 mg/kg/day in data set [1] (read-out: L-1210 ILS) is 82%; in data set [1] (read-out: L-1210 Judgement), 50 to 100%. Also, the inhibition in vivo at 29.5 mg/kg/day came out at 20.7% in data set [2] (29.5 mg/kg/day × 10, 21st day, read-out: Inhibition Ratio weight LLC) and 57.5% in data set [2] (29.5 mg/kg/day × 10, lung, 21st day, read-out: Inhibition Ratio metastasis). The inhibition in vivo at 59 mg/kg/day in data set [2] (59 mg/kg/day × 10, 21st day, read-out: Inhibition Ratio weight LLC) was determined as 0%; in data set [2] (59 mg/kg/day × 10, lung, 21st day, read-out: Inhibition Ratio metastasis) it was 95.1%. The IC50 in data set [3] is 12 µg/mL (≈ 30.3 µM). The “MM-46 adenocarcinoma T/C × 100” value in data set [4] is listed as 205%. Moreover, the inhibition in vivo at 300 mg/kg/day in data set [5] (Mus musculus, B16, 504 h, 300 mg/kg/day × 3, read-out: B-16 melanoma Inhibition ratio) worked out at 62%. Besides, the inhibition in vivo at 315 mg/kg/day in data set [6] (Mus musculus, 672 h, 315 mg/kg/day × 3, read-out: colon-38 Inhibition ratio) is 82.1%. This compound came in with an LD50 at 504 h in data set [7] of 1500 mg/kg.

Take `C[Si](C)(C)CCSCCNC(=O)n1cc(F)c(=O)[nH]c1=O` [1-[2-[(2-trimethylsilylethyl)thio]ethylcarbamoyl]-5-fluorouracil, reference compound]: in data set [8] (female mice), the “autopsy findings (ulcer and laxative feces)” value is “an ulcer and laxative feces”; the “spasm (general behavior)” value was “a spasm was observed in some mice”. The LD50 at 504 h in data set [7] turned out to be 1100 mg/kg.

`CC(C)[Si](C)(C)CCSCCNC(=O)n1cc(F)c(=O)[nH]c1=O` [Example 5, 5-Fluoro-3,4-dihydro-N-[2-[[2-(isopropyldimethylsilyl)ethyl]thio]ethyl]-2,4-dioxo-1(2H)-pyrimidinecarboxamide]: the ILS at 250 mg/kg/day in data set [1] (read-out: L-1210 ILS) is 51%; in data set [1] (read-out: L-1210 Judgement), 25 to 50%. Moreover, the ILS at 500 mg/kg/day is 106% in data set [1] (read-out: L-1210 ILS) and at least 100% in data set [1] (read-out: L-1210 Judgement). Further, the inhibition in vivo at 13.5 mg/kg/day in data set [2] (13.5 mg/kg/day × 10 + Amputation, 21st day, read-out: Inhibition Ratio weight LLC) is 34.7%; in data set [2] (13.5 mg/kg/day × 10 + Amputation, lung, 21st day, printed in parentheses, read-out: Inhibition Ratio metastasis), 15.4%; in data set [2] (13.5 mg/kg/day × 10, 21st day, read-out: Inhibition Ratio weight LLC), 0%; in data set [2] (13.5 mg/kg/day × 10, lung, 21st day, read-out: Inhibition Ratio metastasis), 19.3%. Moreover, the inhibition in vivo at 27 mg/kg/day in data set [2] (27 mg/kg/day × 10 + Amputation, 21st day, read-out: Inhibition Ratio weight LLC) is 35.8%; in data set [2] (27 mg/kg/day × 10 + Amputation, lung, 21st day, printed in parentheses, read-out: Inhibition Ratio metastasis) it was over 39.5%; in data set [2] (27 mg/kg/day × 10, 21st day, read-out: Inhibition Ratio weight LLC), 7.1%; in data set [2] (27 mg/kg/day × 10, lung, 21st day, read-out: Inhibition Ratio metastasis), 78.4%. In addition, the inhibition in vivo at 54 mg/kg/day worked out at 34.9% in data set [2] (54 mg/kg/day × 10, 21st day, read-out: Inhibition Ratio weight LLC) and 83% in data set [2] (54 mg/kg/day × 10, lung, 21st day, read-out: Inhibition Ratio metastasis). Besides, the IC50 in data set [3] stood at 4 µg/mL (≈ 11.1 µM). Further, in data set [4], the “MM-46 adenocarcinoma T/C × 100” value stood at 162%. Further, the “B-16 melanoma Inhibition ratio” value in data set [5] (300 mg/kg/day × 3) was found to be 79.7%. For the same compound, the “colon-38 Inhibition ratio” value in data set [6] (289 mg/kg/day × 3) was determined as 89.8%.

As to `C[Si](C)(C)CCCSCCNC(=O)n1cc(F)c(=O)[nH]c1=O` [Example 1, 5-Fluoro-3,4-dihydro-2,4-dioxo-N-[2-[[3-(trimethylsilyl)propyl]thio]ethyl]-1(2H)-pyrimidinecarboxamide], the ILS at 250 mg/kg/day is 28% in data set [1] (read-out: L-1210 ILS) and 25 to 50% in data set [1] (read-out: L-1210 Judgement). Moreover, the ILS at 500 mg/kg/day in data set [1] (read-out: L-1210 ILS) is 98%; in data set [1] (read-out: L-1210 Judgement) it was 50 to 100%. In addition, the inhibition in vivo at 13 mg/kg/day came to 33.2% in data set [2] (13 mg/kg/day × 10 + Amputation, 21st day, read-out: Inhibition Ratio weight LLC); 26.6% in data set [2] (13 mg/kg/day × 10 + Amputation, lung, 21st day, printed in parentheses, read-out: Inhibition Ratio metastasis); 0% in data set [2] (13 mg/kg/day × 10, 21st day, read-out: Inhibition Ratio weight LLC); 50.9% in data set [2] (13 mg/kg/day × 10, lung, 21st day, read-out: Inhibition Ratio metastasis). Besides, the inhibition in vivo at 26 mg/kg/day in data set [2] (26 mg/kg/day × 10 + Amputation, 21st day, read-out: Inhibition Ratio weight LLC) was 59.8%; in data set [2] (26 mg/kg/day × 10 + Amputation, lung, 21st day, printed in parentheses, read-out: Inhibition Ratio metastasis) it was over 63%; in data set [2] (26 mg/kg/day × 10, 21st day, read-out: Inhibition Ratio weight LLC) it was 51.1%; in data set [2] (26 mg/kg/day × 10, lung, 21st day, read-out: Inhibition Ratio metastasis), 79.2%. The inhibition in vivo at 52 mg/kg/day turned out to be 31.1% in data set [2] (52 mg/kg/day × 10, 21st day, read-out: Inhibition Ratio weight LLC) and 95.7% in data set [2] (52 mg/kg/day × 10, lung, 21st day, read-out: Inhibition Ratio metastasis). For the same compound, the IC50 in data set [3] came out at 20 µg/mL (≈ 57.6 µM). Further, in data set [4], the “MM-46 adenocarcinoma T/C × 100” value is reported as 181%. In addition, in data set [5] (Mus musculus, B16, 504 h, 125 mg/kg/day × 3, read-out: B-16 melanoma Inhibition ratio), the inhibition in vivo at 125 mg/kg/day was 25.8%. For the same compound, in data set [5] (Mus musculus, B16, 504 h, 250 mg/kg/day × 3, read-out: B-16 melanoma Inhibition ratio), the inhibition in vivo at 250 mg/kg/day was found to be 73.8%. Also, the inhibition in vivo at 278 mg/kg/day in data set [6] (Mus musculus, 672 h, 278 mg/kg/day × 3, read-out: colon-38 Inhibition ratio) was 95.2%. Further, in data set [7], the LD50 at 504 h came out at 1580 mg/kg.

For the compound `CCCCCCNC(=O)n1cc(F)c(=O)[nH]c1=O` [HCFU, 1-hexylcarbamoyl-5-fluorouracil, reference compound], the LD50 in data set [8] (suspended in 0.1% P-1570, female mice, 21 days observation) amounted to 1250 mg/kg.
